Experiments:
[1] = biological target: Serine/threonine-protein kinase PAK 4 (Homo sapiens) (UniProt O96013); assay: Inhibition of PAK4 (unknown origin) at 1 uM incubated for 30 mins in presence of [gamma-33P]ATP by multidrop micro reagent based assay relative to control
[2] = biological target: Mitogen-activated protein kinase 9 (Homo sapiens) (UniProt P45984); assay: Inhibition of JNK2 (unknown origin) at 1 uM incubated for 30 mins in presence of [gamma-33P]ATP by multidrop micro reagent based assay relative to control; values are per cent of control
Sequence of Mitogen-activated protein kinase 9 (Homo sapiens) (P45984 whole entry, looked up): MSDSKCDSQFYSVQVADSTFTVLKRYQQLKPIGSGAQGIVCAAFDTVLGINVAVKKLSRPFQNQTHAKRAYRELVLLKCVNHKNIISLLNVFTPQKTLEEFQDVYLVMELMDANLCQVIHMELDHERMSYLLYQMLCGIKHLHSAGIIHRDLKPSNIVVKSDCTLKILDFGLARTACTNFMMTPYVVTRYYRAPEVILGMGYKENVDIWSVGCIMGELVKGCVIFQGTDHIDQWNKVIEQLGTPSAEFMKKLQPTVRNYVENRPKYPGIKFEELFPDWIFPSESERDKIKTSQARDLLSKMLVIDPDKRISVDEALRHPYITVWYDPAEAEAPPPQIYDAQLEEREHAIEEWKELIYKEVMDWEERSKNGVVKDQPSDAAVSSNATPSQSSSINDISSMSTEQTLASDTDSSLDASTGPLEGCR

[3] = biological target: T1, MAP kinase-activated protein kinase 5 (Homo sapiens) (UniProt Q8IW41); assay: Inhibition of PRAK (unknown origin) at 1 uM incubated for 30 mins in presence of [gamma-33P]ATP by multidrop micro reagent based assay relative to control; values are per cent of control
T1 sequence (whole entry): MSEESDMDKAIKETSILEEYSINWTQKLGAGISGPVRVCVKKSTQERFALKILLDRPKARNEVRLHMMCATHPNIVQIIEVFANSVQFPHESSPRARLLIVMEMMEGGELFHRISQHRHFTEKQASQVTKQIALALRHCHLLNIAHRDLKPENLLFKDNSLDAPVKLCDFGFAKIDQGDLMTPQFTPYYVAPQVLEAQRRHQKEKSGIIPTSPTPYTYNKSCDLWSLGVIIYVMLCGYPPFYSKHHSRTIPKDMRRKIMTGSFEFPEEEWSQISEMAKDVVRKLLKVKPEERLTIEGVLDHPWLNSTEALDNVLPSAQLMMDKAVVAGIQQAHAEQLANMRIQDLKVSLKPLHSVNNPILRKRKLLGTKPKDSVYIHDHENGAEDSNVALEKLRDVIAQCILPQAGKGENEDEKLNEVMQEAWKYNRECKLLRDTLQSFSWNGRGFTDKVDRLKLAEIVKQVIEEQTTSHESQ

[4] = biological target: Dual specificity mitogen-activated protein kinase kinase 1 (Homo sapiens) (UniProt Q02750); assay: Inhibition of MKK1 (unknown origin) at 10 uM incubated for 30 mins in presence of [gamma-33P]ATP by multidrop micro reagent based assay relative to control
Sequence of Dual specificity mitogen-activated protein kinase kinase 1 (Homo sapiens) (Q02750 whole entry): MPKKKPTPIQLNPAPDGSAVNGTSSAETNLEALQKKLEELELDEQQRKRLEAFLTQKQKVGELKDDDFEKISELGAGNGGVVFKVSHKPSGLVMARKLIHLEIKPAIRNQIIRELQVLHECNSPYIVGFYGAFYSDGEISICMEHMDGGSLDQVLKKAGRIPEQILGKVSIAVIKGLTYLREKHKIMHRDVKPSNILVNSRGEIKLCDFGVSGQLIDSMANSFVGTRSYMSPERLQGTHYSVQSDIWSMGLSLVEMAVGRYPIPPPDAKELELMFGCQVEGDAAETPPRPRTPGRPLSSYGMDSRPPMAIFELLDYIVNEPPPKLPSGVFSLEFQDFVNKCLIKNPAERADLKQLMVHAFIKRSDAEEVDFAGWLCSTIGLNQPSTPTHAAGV

[5] = biological target: T2, Serine/threonine-protein kinase Sgk1 (Homo sapiens) (UniProt O00141); assay: Residual activity of SGK1 (unknown origin) at 10 uM incubated for 30 mins in presence of [gamma-33P]ATP by multidrop micro reagent based assay relative to control
T2 sequence (whole entry): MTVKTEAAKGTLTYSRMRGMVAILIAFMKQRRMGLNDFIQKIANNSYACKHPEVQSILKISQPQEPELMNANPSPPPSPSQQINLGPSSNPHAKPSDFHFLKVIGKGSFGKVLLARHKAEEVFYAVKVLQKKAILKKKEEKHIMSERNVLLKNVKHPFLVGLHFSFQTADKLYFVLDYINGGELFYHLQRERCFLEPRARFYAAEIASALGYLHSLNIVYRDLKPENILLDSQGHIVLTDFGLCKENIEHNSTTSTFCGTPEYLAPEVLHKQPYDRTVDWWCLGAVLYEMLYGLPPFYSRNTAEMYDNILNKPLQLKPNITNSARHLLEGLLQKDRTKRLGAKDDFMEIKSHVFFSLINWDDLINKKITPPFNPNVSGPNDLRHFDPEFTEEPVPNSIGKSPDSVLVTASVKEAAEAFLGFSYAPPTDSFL

[6] = biological target: T3, Mitogen-activated protein kinase kinase kinase kinase 2 (Homo sapiens) (UniProt Q12851); assay: Inhibition of GCK (unknown origin) at 10 uM incubated for 30 mins in presence of [gamma-33P]ATP by multidrop micro reagent based assay relative to control; values are per cent of control
T3 sequence (whole entry): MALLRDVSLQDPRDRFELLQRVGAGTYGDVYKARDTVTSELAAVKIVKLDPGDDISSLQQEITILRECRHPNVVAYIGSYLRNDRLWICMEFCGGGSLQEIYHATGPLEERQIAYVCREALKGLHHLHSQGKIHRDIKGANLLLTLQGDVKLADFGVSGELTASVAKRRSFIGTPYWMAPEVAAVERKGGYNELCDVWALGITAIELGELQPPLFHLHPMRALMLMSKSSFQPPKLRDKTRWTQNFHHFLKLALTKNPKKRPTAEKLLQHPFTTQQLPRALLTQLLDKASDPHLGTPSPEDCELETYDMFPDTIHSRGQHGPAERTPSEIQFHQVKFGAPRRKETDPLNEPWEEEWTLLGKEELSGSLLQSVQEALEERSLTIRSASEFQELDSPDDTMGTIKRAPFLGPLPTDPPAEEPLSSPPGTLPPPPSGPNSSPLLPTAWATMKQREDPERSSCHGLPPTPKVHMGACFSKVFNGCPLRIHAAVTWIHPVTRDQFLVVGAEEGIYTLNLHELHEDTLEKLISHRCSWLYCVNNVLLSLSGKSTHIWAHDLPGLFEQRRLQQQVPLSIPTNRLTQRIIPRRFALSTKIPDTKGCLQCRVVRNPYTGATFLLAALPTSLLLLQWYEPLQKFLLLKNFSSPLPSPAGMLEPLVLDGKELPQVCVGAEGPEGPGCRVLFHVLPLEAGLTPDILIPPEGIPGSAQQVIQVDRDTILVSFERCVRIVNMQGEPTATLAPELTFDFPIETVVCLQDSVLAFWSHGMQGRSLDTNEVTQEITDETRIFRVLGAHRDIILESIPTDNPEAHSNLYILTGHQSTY

[7] = biological target: MAP kinase-interacting serine/threonine-protein kinase 2 (Homo sapiens) (UniProt Q9HBH9); assay: Inhibition of MNK2 (unknown origin) at 10 uM incubated for 30 mins in presence of [gamma-33P]ATP by multidrop micro reagent based assay relative to control; values are per cent of control
Sequence of MAP kinase-interacting serine/threonine-protein kinase 2 (Homo sapiens) (Q9HBH9 whole entry, looked up): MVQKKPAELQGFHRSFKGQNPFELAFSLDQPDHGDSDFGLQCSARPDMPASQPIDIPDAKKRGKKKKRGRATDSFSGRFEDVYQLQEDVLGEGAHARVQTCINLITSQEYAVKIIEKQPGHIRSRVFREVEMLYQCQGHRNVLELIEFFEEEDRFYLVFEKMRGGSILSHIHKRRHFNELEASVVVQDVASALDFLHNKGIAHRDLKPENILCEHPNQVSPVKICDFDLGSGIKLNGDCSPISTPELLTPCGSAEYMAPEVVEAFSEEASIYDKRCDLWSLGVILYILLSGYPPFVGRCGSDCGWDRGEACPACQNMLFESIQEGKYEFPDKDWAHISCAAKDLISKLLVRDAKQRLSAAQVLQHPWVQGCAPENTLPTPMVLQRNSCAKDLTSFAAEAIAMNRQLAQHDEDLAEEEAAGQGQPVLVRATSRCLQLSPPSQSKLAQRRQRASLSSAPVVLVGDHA

[8] = biological target: Mitogen-activated protein kinase 14 (Homo sapiens) (UniProt Q16539); assay: Inhibition of p38alpha MAPK (unknown origin) at 10 uM incubated for 30 mins in presence of [gamma-33P]ATP by multidrop micro reagent based assay relative to control; values are per cent of control
Sequence of Mitogen-activated protein kinase 14 (Homo sapiens) (Q16539 whole entry): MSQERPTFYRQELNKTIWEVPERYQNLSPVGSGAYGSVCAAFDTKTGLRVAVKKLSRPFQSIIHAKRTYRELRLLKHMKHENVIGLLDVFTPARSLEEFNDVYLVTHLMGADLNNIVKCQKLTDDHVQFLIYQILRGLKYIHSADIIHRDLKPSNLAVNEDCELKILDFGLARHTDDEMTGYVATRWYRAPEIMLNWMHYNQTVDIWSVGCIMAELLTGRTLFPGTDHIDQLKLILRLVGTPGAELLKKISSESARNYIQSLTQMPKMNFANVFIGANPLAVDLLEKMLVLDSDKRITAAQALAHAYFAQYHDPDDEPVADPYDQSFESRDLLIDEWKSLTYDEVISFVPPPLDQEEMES

Sequence of Serine/threonine-protein kinase PAK 4 (Homo sapiens) (O96013 whole entry, looked up): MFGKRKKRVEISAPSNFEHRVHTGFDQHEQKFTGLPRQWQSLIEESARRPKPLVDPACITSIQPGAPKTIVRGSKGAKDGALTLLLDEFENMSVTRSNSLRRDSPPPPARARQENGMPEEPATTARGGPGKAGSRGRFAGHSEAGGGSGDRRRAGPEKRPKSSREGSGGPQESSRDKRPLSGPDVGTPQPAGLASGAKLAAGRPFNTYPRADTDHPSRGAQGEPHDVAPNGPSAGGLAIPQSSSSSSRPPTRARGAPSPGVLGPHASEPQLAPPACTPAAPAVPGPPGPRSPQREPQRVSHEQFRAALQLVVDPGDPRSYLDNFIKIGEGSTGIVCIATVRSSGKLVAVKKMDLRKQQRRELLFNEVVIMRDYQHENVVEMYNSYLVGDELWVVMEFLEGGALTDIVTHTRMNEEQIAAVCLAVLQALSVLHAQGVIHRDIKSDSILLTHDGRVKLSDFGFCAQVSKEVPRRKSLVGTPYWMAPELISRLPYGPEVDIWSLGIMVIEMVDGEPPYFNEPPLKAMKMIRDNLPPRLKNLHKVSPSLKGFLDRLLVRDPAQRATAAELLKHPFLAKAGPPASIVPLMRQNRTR

| SMILES | residual activity [1] [%] | residual activity [2] [%] | residual activity [3] [%] | inhibition [4] [%] | residual activity [5] [%] | residual activity [6] [%] | residual activity [7] [%] | residual activity [8] [%] |
| --- | --- | --- | --- | --- | --- | --- | --- | --- |
| CC1=C(C(=O)Nc2cc3cn[nH]c3cc2F)C(c2ccc(C(F)(F)F)cc2)CC(=O)N1 (stereo unspecified) | 95 | 101 | 92 | – | – | – | – | – |
| Cc1cncc2cccc(S(=O)(=O)N3CCCNC[C@@H]3C)c12 | 99 | – | – | – | – | – | – | – |
| CCN(CC)CCNC(=O)c1c(C)[nH]c(/C=C2\C(=O)Nc3ccc(F)cc32)c1C | – | – | 75 | – | – | – | – | – |
| CCn1c(-c2nonc2N)nc2cnc(Oc3cccc(NC(=O)c4ccc(OCCN5CCOCC5)cc4)c3)cc21 [GSK-269962A] | – | 101 | – | – | – | – | – | – |
| C[C@@H](N)[C@H]1CC[C@H](C(=O)Nc2ccncc2)CC1 | – | – | – | 71 | 50 | 89 | 44 | 103 |
| O=S(=O)(c1cccc2cnccc12)N1CCCNCC1 [FASUDIL] | – | – | – | 41 | 69 | 55 | 27 | 108 |

From ChEMBL document CHEMBL5705888, “Substrate specificity and inhibitors of LRRK2, a protein kinase mutated in Parkinson's disease” (Biochem J, 2009)
